Results reported in the NIST ThermoML archive (doi:10.1016/j.jct.2015.05.024).

Test: xn = mol fraction of the nth substance listed
Conditions: 100 kPa, Liquid; for mass density: Vibrating tube method; for speed of sound: Frequency=5 MHz, Pulse-echo method

OCCOCCOCCO [triethylene glycol] + O
Conditions	mass density [kg/m3]	speed of sound [m/s]
303.15 K, x1 = 0.04979	1041.3	–
303.15 K, x1 = 0.06996	1054	–
303.15 K, x1 = 0.09424	1066.08	–
303.15 K, x1 = 0.1481	1084.03	–
303.15 K, x1 = 0.2006	1094.18	–
303.15 K, x1 = 0.2502	1100.12	–
303.15 K, x1 = 0.2988	1103.95	–
303.15 K, x1 = 0.3492	1106.7	–
303.15 K, x1 = 0.3925	1108.43	–
303.15 K, x1 = 0.4502	1110.16	–
303.15 K, x1 = 0.4877	1111.03	–
303.15 K, x1 = 0.5004	1111.29	–
303.15 K, x1 = 0.5739	1112.54	–
303.15 K, x1 = 0.58	1112.63	–
303.15 K, x1 = 0.6465	1113.45	–
303.15 K, x1 = 0.651	1113.5	–
303.15 K, x1 = 0.7008	1113.98	–
303.15 K, x1 = 0.7471	1114.36	–
303.15 K, x1 = 0.7677	1114.51	–
303.15 K, x1 = 0.82	1114.86	–
303.15 K, x1 = 0.8623	1115.11	–
303.15 K, x1 = 0.8792	1115.2	–
303.15 K, x1 = 0.8975	1115.3	–
303.15 K, x1 = 0.9203	1115.41	–
303.15 K, x1 = 0.9514	1115.57	–
303.15 K, x1 = 0.9692	1115.66	–
303.15 K, x1 = 1	1115.81	–
308.15 K, x1 = 0.000704	–	1522.8
308.15 K, x1 = 0.002176	–	1528.1
308.15 K, x1 = 0.005721	–	1540.6
308.15 K, x1 = 0.01035	–	1556
308.15 K, x1 = 0.0107	1005.7	–
308.15 K, x1 = 0.01513	–	1570.7
308.15 K, x1 = 0.02047	1015.27	–
308.15 K, x1 = 0.02389	–	1595
308.15 K, x1 = 0.03177	–	1614.1
308.15 K, x1 = 0.03972	1031.49	–
308.15 K, x1 = 0.0428	–	1637
308.15 K, x1 = 0.04979	1038.74	–
308.15 K, x1 = 0.05056	–	1650.6
308.15 K, x1 = 0.05793	–	1661.8
308.15 K, x1 = 0.06447	–	1670.6
308.15 K, x1 = 0.06996	1051.15	–
308.15 K, x1 = 0.07343	–	1680.8
308.15 K, x1 = 0.08342	–	1690
308.15 K, x1 = 0.09076	–	1695.5
308.15 K, x1 = 0.09424	1062.94	–
308.15 K, x1 = 0.1028	–	1702.6
308.15 K, x1 = 0.1137	–	1707.1
308.15 K, x1 = 0.1189	–	1708.7
308.15 K, x1 = 0.1229	–	1709.7
308.15 K, x1 = 0.1231	–	1709.7
308.15 K, x1 = 0.1269	–	1710.5
308.15 K, x1 = 0.1308	–	1711.1
308.15 K, x1 = 0.1403	–	1712.1
308.15 K, x1 = 0.1427	–	1712.2
308.15 K, x1 = 0.1481	1080.5	1712.3
308.15 K, x1 = 0.1594	–	1711.9
308.15 K, x1 = 0.1659	–	1711.3
308.15 K, x1 = 0.1738	–	1710.3
308.15 K, x1 = 0.1858	–	1708.3
308.15 K, x1 = 0.1969	–	1706
308.15 K, x1 = 0.2006	1090.47	–
308.15 K, x1 = 0.2172	–	1701
308.15 K, x1 = 0.2467	–	1692.8
308.15 K, x1 = 0.2502	1096.32	–
308.15 K, x1 = 0.2825	–	1682.6
308.15 K, x1 = 0.2988	1100.12	–
308.15 K, x1 = 0.3259	–	1670.8
308.15 K, x1 = 0.3492	1102.85	–
308.15 K, x1 = 0.3691	–	1660.3
308.15 K, x1 = 0.3925	1104.57	–
308.15 K, x1 = 0.4352	–	1646.2
308.15 K, x1 = 0.4502	1106.3	–
308.15 K, x1 = 0.4877	1107.17	–
308.15 K, x1 = 0.5004	1107.43	–
308.15 K, x1 = 0.5067	–	1632.7
308.15 K, x1 = 0.5739	1108.68	–
308.15 K, x1 = 0.58	1108.77	–
308.15 K, x1 = 0.6111	–	1615.9
308.15 K, x1 = 0.6465	1109.59	–
308.15 K, x1 = 0.651	1109.63	–
308.15 K, x1 = 0.7008	1110.12	–
308.15 K, x1 = 0.7471	1110.49	–
308.15 K, x1 = 0.7677	1110.64	–
308.15 K, x1 = 0.7783	–	1598.5
308.15 K, x1 = 0.82	1110.99	–
308.15 K, x1 = 0.8623	1111.23	–
308.15 K, x1 = 0.8792	1111.32	–
308.15 K, x1 = 0.8912	–	1591.9
308.15 K, x1 = 0.8975	1111.42	–
308.15 K, x1 = 0.9203	1111.54	–
308.15 K, x1 = 0.9514	1111.69	–
308.15 K, x1 = 0.9608	–	1587.5
308.15 K, x1 = 0.9692	1111.78	–
308.15 K, x1 = 1	1111.92	1584.6
313.15 K, x1 = 0.00059	–	1530.8
313.15 K, x1 = 0.002696	–	1537.9
313.15 K, x1 = 0.006871	–	1551.2
313.15 K, x1 = 0.01006	–	1560.8
313.15 K, x1 = 0.0107	1003.69	–
313.15 K, x1 = 0.01494	–	1574.7
313.15 K, x1 = 0.02047	1013.09	–
313.15 K, x1 = 0.02274	–	1594.6
313.15 K, x1 = 0.02979	–	1610.7
313.15 K, x1 = 0.03584	–	1623
313.15 K, x1 = 0.03972	1028.97	–
313.15 K, x1 = 0.04219	–	1634.6
313.15 K, x1 = 0.04979	1036.07	–
313.15 K, x1 = 0.05045	–	1647.8
313.15 K, x1 = 0.05689	–	1656.8
313.15 K, x1 = 0.06687	–	1668.7
313.15 K, x1 = 0.06996	1048.19	–
313.15 K, x1 = 0.07692	–	1678.3
313.15 K, x1 = 0.08288	–	1683
313.15 K, x1 = 0.09135	–	1688.6
313.15 K, x1 = 0.09262	–	1689.3
313.15 K, x1 = 0.09424	1059.72	–
313.15 K, x1 = 0.1004	–	1693.3
313.15 K, x1 = 0.1079	–	1696.2
313.15 K, x1 = 0.116	–	1698.7
313.15 K, x1 = 0.1201	–	1699.6
313.15 K, x1 = 0.1232	–	1700.2
313.15 K, x1 = 0.1303	–	1701.1
313.15 K, x1 = 0.1343	–	1701.5
313.15 K, x1 = 0.1377	–	1701.6
313.15 K, x1 = 0.1423	–	1701.7
313.15 K, x1 = 0.1481	1076.91	–
313.15 K, x1 = 0.1573	–	1701
313.15 K, x1 = 0.1723	–	1699
313.15 K, x1 = 0.1866	–	1696.2
313.15 K, x1 = 0.2006	1086.71	–
313.15 K, x1 = 0.2037	–	1692.2
313.15 K, x1 = 0.2426	–	1681.2
313.15 K, x1 = 0.2502	1092.5	–
313.15 K, x1 = 0.2794	–	1670.3
313.15 K, x1 = 0.2988	1096.26	–
313.15 K, x1 = 0.3209	–	1658.6
313.15 K, x1 = 0.3492	1098.98	–
313.15 K, x1 = 0.3925	1100.7	–
313.15 K, x1 = 0.403	–	1638.8
313.15 K, x1 = 0.4502	1102.42	–
313.15 K, x1 = 0.4658	–	1626
313.15 K, x1 = 0.4877	1103.29	–
313.15 K, x1 = 0.5004	1103.55	–
313.15 K, x1 = 0.5676	–	1608
313.15 K, x1 = 0.5739	1104.8	–
313.15 K, x1 = 0.58	1104.89	–
313.15 K, x1 = 0.6465	1105.71	–
313.15 K, x1 = 0.651	1105.76	–
313.15 K, x1 = 0.6969	–	1590.8
313.15 K, x1 = 0.7008	1106.24	–
313.15 K, x1 = 0.7471	1106.61	–
313.15 K, x1 = 0.7677	1106.76	–
313.15 K, x1 = 0.82	1107.11	–
313.15 K, x1 = 0.8623	1107.35	–
313.15 K, x1 = 0.8694	–	1577.9
313.15 K, x1 = 0.8792	1107.44	–
313.15 K, x1 = 0.9455	–	1572.9
313.15 K, x1 = 1	–	1569.1
